Data taken from BindingDB's records for doi:10.1021/jm800328v (Yale University, 2008).

Target: T1, ATP phosphoribosyltransferase (Mycobacterium tuberculosis (strain ATCC 25618 / H37Rv), UniProt P9WMN1)
T1 sequence (P9WMN1 whole entry): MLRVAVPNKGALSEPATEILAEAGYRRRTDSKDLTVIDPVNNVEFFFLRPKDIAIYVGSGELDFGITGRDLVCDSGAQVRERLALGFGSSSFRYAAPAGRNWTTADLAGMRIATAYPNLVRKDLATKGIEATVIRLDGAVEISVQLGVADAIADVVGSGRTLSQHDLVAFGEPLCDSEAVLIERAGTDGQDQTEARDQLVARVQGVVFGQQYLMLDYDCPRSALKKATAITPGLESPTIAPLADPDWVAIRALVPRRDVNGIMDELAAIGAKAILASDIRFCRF
Experiment: Enzyme Inhibition Assay
Conditions: pH 8.5; 22 °C
Procedure: Inhibition activity was determined using an assay that followed the production of PR-ATP spectrophotometrically. Enzymatic reaction was initiated by adding the substrate PRPP to reaction mixtures containing HisG enzyme and test compounds, and absorbance of product was monitored at 290 nm for 5 min until it formed a plateau.

Question: With `O=C(CSc1nnc(-c2ccccc2)c(-c2ccccc2)n1)Nc1nccs1` [2-[(5,6-diphenyl-1,2,4-triazin-3-yl)sulfanyl]-N-(1,3-thiazol-2-yl)acetamide] as the compound, how does the IC50 read?
Answer: Its IC50 is 4 µM.

Question: How did the IC50 turn out when `COc1ccc(COC(=O)C2=C(C)N=C3CC(c4cccs4)CC(=O)C3C2c2cccs2)cc1` (configuration not stated) [(4-methoxyphenyl)methyl 2-methyl-5-oxo-4,7-bis(thiophen-2-yl)-1,4,5,6,7,8-hexahydroquinoline-3-carboxylate] was run?
Answer: The IC50 was 10 µM.
